Test results published in patent publication US9943599B2, “Therapeutic applications of calcium electroporation to effectively induce tumor necrosis” (Herlev Hospital, priority 2011, dated 2018).

How the values were obtained:
[1] = test system: DC-3F, K-562 and Lewis Lung Carcinoma cells; experiment: Hypothetical sonoporation in vitro, MTT assay; assay type: cell-based, Chinese hamster, human, murine
Method: Three cell lines are used for in vitro experiments, DC-3F, a transformed Chinese hamster lung fibroblast cell line; K-562, a human leukemia cell line; and Lewis Lung Carcinoma, a murine lung carcinoma cell line. All cell lines are tested for mycoplasma. Cells are maintained in RPMI 1640 culture medium with 10% fetal calf serum, penicillin and streptomycin at 37° C. and 5% CO2. After harvesting, cells are washed and diluted in HEPES buffer containing 10 mM HEPES, 250 mM sucrose and 1 mM MgCl2 in sterile. The cell suspension with 0, 0.5, 1 and 3 mM CaCl2 is added to a sample tube which is placed in the ultrasound exposure chamber and exposed to low-frequency ultrasound at room temperature. A function generator is programmed to provide a wave of selected voltage, duty cycle, burst length, and total exposure time.
After 20 min at 37° C. and 5% CO2 cells are diluted in RPMI 1640 culture medium with 10% fetal calf serum and penicillin-streptomycin and seeded in 96-well plates at a concentration of 3.1×10^4 cells/100 μl.
Difference between cells treated with and without ultrasound in identical buffer is assessed using two-way analysis of variance CANOVA) with post least-squares-means test with Bonferroni correction for multiple comparisons.

[2] = test system: MDA-MB231 (human breast cancer) tumors; experiment: Fraction of necrosis after calcium electroporation, MDA-MB231 tumors; assay type: in vivo, NMRI-Foxn1^nu mice
Method: (§1) LPB, a murine sarcoma cell line, B16, a murine malignant melanoma cell line, MDA-MB231, human a breast cancer cell line, HT29, a human colon cancer cell line, and SW780, a human bladder cancer cell line were used for the in vivo experiment. The cells were tested by rapid MAP27 panel (Taconic, Hudson N.Y.) before use without signs of infection. 2×10^5 cells (B16), 8×10^5 cells (LPB), 2.5×10^6 cells (MDA-MB231), and 5×10^6 cells (HT29 and SW780) in 100 μl PBS were injected subcutaneously in the flank of NMRI-Foxn1^nu mice (Harlan, Indianapolis, Ind.) that were 9-11 weeks old. Mice were randomised at a tumor volume above 85 mm^3 and tumors were treated with injection of isotonic calcium-chloride solution (168 mM CaCI2) and electroporation (8 pulses of 1.0 kv/cm for 100 μs and a frequency of 1 Hz) using a 6 mm plate electrode and a square wave electroporator (CLINIPORATOR®, IGEA, Modena, Italy). Tumor volume was calculated as ab^2n/6, where a is the largest diameter and b is the largest diameter perpendicular to a. The injected volume was half of the tumor volume. […] The fraction of necrosis within the tumor was estimated from HE-sections by stereological point counting using a light microscope, evaluated by a pathologist, blinded with respect to treatment status.
(§2) The difference in fraction of necrosis at different time after treatment was assessed using student's t-test.

[3] = test system: CT26 (murine colon carcinoma) tumors; experiment: Calcium with sonoporation, CT26 tumor volume; assay type: in vivo, Balb/c mice
Method: CT26, a murine colon carcinoma cell line was used for the in vivo experiments. The cells were tested by mycoplasma detection kit (Sigma, St. Louis, Mo.) before use without signs of infection. Cells were maintained in vitro in DMEM culture medium (Sigma, St. Louis, Mo.) with 10% fetal calf serum (Sigma, St. Louis, Mo.), L-glutamine, penicillin and streptomycin at 37° C. and 5% CO2. All antibiotics were removed from culture media 24 hours before tumour inoculation. 1.0×10^6 cells/200 μl serum free DMEM were injected subcutaneously in the right flank of 6-8 week old female Balb/c mice, in condition weighing 16-22 g. Mice were randomised at an average tumor size of approximately 5.0 mm in largest diameter and tumors were treated with 1) injection of isotonic calcium-chloride solution (168 mM CaCl2) and sonoporation (3.5 W/cm^2 at 1 MHz and 100% duty cycle for 2 minutes) using a SONITRON® 2000 ultrasound apparatus (Rich-Mar, Inola, Okla.), 2) sonoporation alone (same parameters as above), 3) isotonic calcium-chloride solution injection, or 4) no treatment. Tumor volume was calculated as ab^2n/6, where a is the largest diameter and b is the largest diameter perpendicular to a. […]
The difference in tumor volume between the different treatment groups at different time after treatment was assessed using student's t-test.

[4] = test system: tumor on the heel joint; experiment: Case study, calcium electroporation of canine tumor; assay type: in vivo, dog; settings: 168 mM calcium chloride, 50% of tumor volume, 11 days after treatment
Method: A seven year old Danish Pointer dog with a tumor on the heel joint was treated with calcium electroporation. The tumor was injected with 168 mM calcium chloride solution in a total volume equivalent to 50% of the tumor volume calculated as ab^2n/6, where “a” is the largest diameter of the tumor and “b” is the largest diameter perpendicular to “a”. The calcium chloride solution was injected throughout the tumor to secure an even distribution of calcium in the tumor. After the calcium injection the tumor was electroporated (8 pulses of […] at 1.0 kV/cm and 1 Hz) using a needle electrode and a square wave electroporator (CLINIPORATOR®, IGEA, Modena, Italy). The tumor was photographed before and after the treatment.

[5] = test system: LPB (murine sarcoma) tumors; experiment: Fraction of necrosis after calcium electroporation, LPB tumors; assay type: in vivo, NMRI-Foxn1^nu mice
Method: as §1, §2

[6] = test system: B16 (murine melanoma) tumors; experiment: Fraction of necrosis after calcium electroporation, B16 tumors; assay type: in vivo, NMRI-Foxn1^nu mice; settings: 168 mM CaCl2, half tumor volume, first days after treatment
Method: as §1, §2

[7] = test system: H69 (human small cell lung cancer) tumors; experiment: Tumor volume and fluorescence intensity of H69 tumors on nude mice; settings: for necrosis of skin / healthy tissue around the tumor: injected volume equivalent to the tumor volume (1 to 1 ratio)
[8] = 168 mM CaCl2, half tumor volume, electroporation, first days after treatment
[9] = 168 mM CaCl2 with electroporation

**Q.** For `[Ca+2].[Cl-].[Cl-]` [calcium chloride], which cell death ([1]; with ultrasound, 0 to 3 mM calcium) is on record?
**A.** dose dependent cell death

**Q.** And the “effect on cell viability” value ([1]; without ultrasound, high calcium concentrations)?
**A.** no effect on cell viability

**Q.** What about the “fraction of necrosis in tumors, course” value [2, 8] of the same molecule?
**A.** progressive necrosis

**Q.** What about the tumor re-growth ([2]; 6 days after the treatment) of the same molecule?
**A.** re-growth

**Q.** What about the treated tumors eliminated ([3]; 168 mM CaCl2, half tumor volume, sonoporation 3.5 W/cm^2, 1 MHz, 2 minutes, 7/8) of the same molecule?
**A.** 88%

**Q.** And the tumor volume ([3]; isotonic calcium-chloride injection alone (control))?
**A.** continues to increase

**Q.** And the necrosis of tumor [4]?
**A.** clinical signs of necrosis

**Q.** What about the “tumor size (photos)” value [4] of the same molecule?
**A.** reduced in size

**Q.** And the “fraction of necrosis in tumors, course” value [5, 8]?
**A.** progressive necrosis

**Q.** What about the tumor re-growth ([5]; 6 days after the treatment) of the same molecule?
**A.** re-growth

**Q.** And the “fraction of necrosis in tumors, course” value [6]?
**A.** progressive necrosis

**Q.** And the treated tumors eliminated ([7]; 168 mM CaCl2 intratumoral with electroporation (8 pulses 1.0 kV/cm, 100 μs, 1 Hz), 8/9)?
**A.** 89%

**Q.** What about the “healing of ulceration, average” value [7, 9] of the same molecule?
**A.** 18 days

**Q.** And the “healing of ulceration, range” value [7, 9]?
**A.** 9 to 24 days

**Q.** What about the “ulceration of treated tumors” value [7, 9] of the same molecule?
**A.** occurs in all

**Q.** And the “fluorescence intensity of tumors” value ([7]; 168 mM CaCl2 with electroporation, stays at background levels)?
**A.** decrease drastically

**Q.** What about the “necrosis of skin / healthy tissue around the tumor” value ([7]; with electroporation, listed as Ca^2+-EP) of the same molecule?
**A.** skin necrosis

**Q.** What about the “necrosis of skin / healthy tissue around the tumor” value ([7]; with electroporation, listed as calcium solution) of the same molecule?
**A.** necrotic effect on the healthy tissues surrounding the neoplasm

**Q.** What about the “necrosis of surrounding tissue” value ([7]; injected volume ratio 0.5 of tumor volume, with electroporation) of the same molecule?
**A.** without creating necrosis in the surrounding tissue

**Q.** And the “tumor volume doubling time” value ([7]; isotonic calcium-chloride without electroporation)?
**A.** 6.3 days
